Results: BindingDB's records for PubMed 35660250 (COMSATS University Islamabad, 2022)

Experiments:
[1] = Antagonist activity against human P2X4R stably transfected in human 1321N1 cells assessed as ATP EC50 at 0.1 uM incubated for 30 mins by Fura-2 AM staining based calcium influx assay
[2] = Antagonist activity against human P2X4R stably transfected in human 1321N1 cells assessed as ATP EC50 at 0.2 uM incubated for 30 mins by Fura-2 AM staining based calcium influx assay
[3] = Antagonist activity against human P2X4R stably transfected in human 1321N1 cells assessed as ATP EC50 at 0.05 uM incubated for 30 mins by Fura-2 AM staining based calcium influx assay
[4] = Antagonist activity against human P2X7R stably transfected in human 1321N1 cells assessed as BzATP EC50 at 0.1 uM incubated for 30 mins by Fura-2 AM staining based calcium influx assay
[5] = Antagonist activity against human P2X7R stably transfected in human 1321N1 cells assessed as BzATP EC50 at 0.2 uM incubated for 30 mins by Fura-2 AM staining based calcium influx assay
[6] = Antagonist activity against human P2X7R stably transfected in human 1321N1 cells assessed as BzATP EC50 at 0.05 uM incubated for 30 mins by Fura-2 AM staining based calcium influx assay

| EC50 [1] | EC50 [2] | EC50 [3] | EC50 [4] | EC50 [5] | EC50 [6] | Structure (SMILES) |
| --- | --- | --- | --- | --- | --- | --- |
| 10.1 µM | 10.8 µM | 10.8 µM |  |  |  | O=C(NC(=S)Nc1c(Br)ccc(C(F)(F)F)c1Br)c1ccc2c(c1)OCO2 |
|  |  |  | 9.44 µM | 9.14 µM | 8.31 µM | O=C(NC(=S)Nc1cccc2cccnc12)c1ccc2c(c1)OCO2 |
